According to patent US20150328157A1, “APPLICATION OF SILICON DIOXIDE AEROGEL AS NANO-DRUG CARRYING SYSTEM IN PHARMACY” (GRADUATE SCHOOL AT SHENZHEN, TSINGHUA UNIVERSITY, priority 2012, published 2015):

Test: Bioavailability of nanosized paclitaxel oral dosage form in rat bodies (plasma paclitaxel by HPLC)
Format: in vivo, SD rats
Details: male, SD, one-time intragastric administration 40 mg/kg
Procedure: Chromatographic conditions: Elite SinoChrom 300A ODS-AP 5 nm 4.6×250 mm Mobile phase: methanol:water:acetonitrile=23:41:36; flow rate: 1.0 ml/min; detection wavelength: 227 nm; and sample size: 20 μl.
Preparation of an internal standard solution: weighing about 10 mg of a diazepam control product, precisely weighing, putting into a 100 ml measuring flask, dissolving with methanol, diluting to the scale and shaking up to obtain an internal standard stock solution with the concentration of 100 μg/ml. An appropriate amount of the stock solution was precisely weighed, diluted with methanol to prepare 10 μg/ml of internal standard control product solution and preserved in the refrigerator at 4° C. for later use.
100 ul of plasma sample was taken and put into an EP tube, 5 μl (10 μg/ml) and 40 μl of NaHCO3(1 mol/L) was added, whirling was performed for 1 min, 1 ml of an extraction solvent, namely ethyl ether, was added, whirling was performed for 2 min, centrifugation was performed at 3500 r/min for 10 min, supernatant fluid was taken and blow-dried under air flow of 40° C., the residue was dissolved in 40 μl of mobile phase, whirling was performed for 1 min, centrifugation was performed at 3500 r/min for 10 min, and then 20 μl of supernatant fluid was taken for sample injection and analysis. […]

AUC: 4890 ng·h/mL
Structure (SMILES): CC(=O)O[C@H]1C(=O)[C@@]2(C)[C@H]([C@H](OC(=O)c3ccccc3)[C@]3(O)C[C@H](OC(=O)[C@H](O)[C@@H](NC(=O)c4ccccc4)c4ccccc4)C(C)=C1C3(C)C)[C@]1(OC(C)=O)CO[C@@H]1C[C@@H]2O [paclitaxel]
